Where “and” joins values, the source holds several entries; their conditions need not be identical. Equal entries are not always repeated.
What was measured:
PD-L1 [1] = molecular target: T1, PD-L1 (Homo sapiens, UniProt Q9NZQ7); experiment: Saturation binding assay on human PD-L1 transduced PC3 cells (assay buffer with 2.5% BSA); parameters: expressed in transfected cells; host or cells: PC3 cells transduced with human PD-L1 (PC3-PD-L1); conditions: for Kd: human PD-L1 transduced PC3 cells, on ice 90 min, PBS + 2.5% w/v BSA; for Bmax: saturation binding, pmol/mg protein, PC3 PD-L1 cells
PD-L1 [2] = molecular target: T1, PD-L1; experiment: Real-time radioligand binding (LigandTracer) on PC3 PD-L1 overexpressing cells, without BSA; parameters: expressed in transfected cells; host or cells: PC3 PD-L1 overexpressing cells; conditions: for Kd: PC3 PD-L1 overexpressing cells, room temperature, without BSA; for ka: association rate constant; for ka / kd: real-time binding; for kd: dissociation rate constant
Method: For the saturation binding experiments, cells were detached with 0.05% Trypsin–EDTA (Gibco, USA), and counted (CASY1 cell counter, Schaerfe System, Reutlingen, Germany). Cells were then diluted in medium to ~ 160,000 cells/mL and seeded in 48 well plates (Falcon Multiwell #353078, ThermoFisher, Karlsruhe, Germany) for at least 2 days prior to saturation binding experiments. For real-time radioligand binding, approximately 400,000 cells/mL were seeded into one side of petri dishes (3 mL, Nunclon, # 150350, ThermoFisher Germany) ~ 24 h before the experiments.
To investigate binding kinetics, including the association rate constant (ka) and dissociation rate constant (kd), as well as the dissociation constant (KD), a real-time assay system (LigandTracer Yellow or LigandTracer White, Ridgeview Instruments AB, Uppsala, Sweden) was utilized. The petri dish contained attached cells in medium (3 mL) on one side, while radioactivity was detected on the opposing side. The petri dish is set upon an inclined base, allowing continuous measurement of alternating portions of the dish for bound radioligand (cells) compared to the background signal (no cells). Binding experiments were carried out at room temperature using CO2-independent medium (Gibco #18045088, ThermoFisher Germany).
The association phase consisted of incubation with two concentrations (30 and 90 nM, each for 90 min) of our ^64Cu-labeled PD-L1-radioligands, binding to PC3 PD-L1 overexpressing cells. Following this, the incubation medium was replaced with fresh medium, and the dissociation phase was monitored for a minimum of 2 h. […] Data were recorded as decay-corrected counts per second (CPS). Subsequently, binding data were analyzed using TraceDrawer software (version 1.9.2, Ridgeview Instruments AB, Uppsala, Sweden). Traces were imported, potential spikes (instances of sudden CPS increases exceeding 100% of the previous data point) were eliminated, and each trace was normalized to its own baseline (set as 0%) and its maximum value (set as 100%).

T1 sequence (Q9NZQ7 19-290): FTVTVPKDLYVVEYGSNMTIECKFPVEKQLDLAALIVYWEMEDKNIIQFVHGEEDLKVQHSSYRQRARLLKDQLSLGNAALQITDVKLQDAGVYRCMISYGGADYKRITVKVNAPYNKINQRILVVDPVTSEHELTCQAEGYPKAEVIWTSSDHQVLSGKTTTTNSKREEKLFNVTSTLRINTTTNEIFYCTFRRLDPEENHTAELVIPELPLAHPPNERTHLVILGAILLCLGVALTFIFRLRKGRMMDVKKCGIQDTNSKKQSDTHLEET

Row | SMILES | Kd (PD-L1 [1]) [µM] | Bmax (PD-L1 [1]) | Kd (PD-L1 [2]) | ka (PD-L1 [2]) | kd (PD-L1 [2])
1 | Cc1c(COc2cc(OCc3cncc(S(C)(=O)=O)c3)c(CN[C@@H](CS(=O)(=O)O)C(=O)NCCS(=O)(=O)O)cc2Br)cccc1-c1cccc(OCc2cn(CCCN3CCN(C(=O)[C@H](CS(=O)(=O)O)NC(=O)CC[C@H](C(=O)[O-])N4CCN(CC(=O)[O-])CCN(CC(=O)[O-])CC4)CC3)nn2)c1C.[64Cu+2] [[^64Cu]Cu-14] | 0.1 | 2.40 pmol/mg and 2.40 ± 0.48 pmol/mg | ~0.02 µM and 0.0233 µM | (5.06 ± 0.25) × 10^3 (M × s)^–1 | (1.17 ± 0.06) × 10^–4 s^–1
2 | Cc1c(COc2cc(OCc3cncc(S(C)(=O)=O)c3)c(CN[C@@H](CS(=O)(=O)O)C(=O)NCCS(=O)(=O)O)cc2Br)cccc1-c1cccc(OCc2cn(CCCN3CCN(C(=O)[C@H](CS(=O)(=O)O)NC(=O)CCCC(=O)NC45CNCCNCC(N)(CNCCNC4)CNCCNC5)CC3)nn2)c1C.[64Cu+2] [[^64Cu]Cu-16] | 0.265 ± 0.0125 | 3.30 pmol/mg and 3.30 ± 0.46 pmol/mg | 0.0242 ± 0.00093 µM | (5.55 ± 0.31) × 10^3 (M × s)^–1 | (1.35 ± 0.09) × 10^–4 s^–1

From paper PMC10876507, “Chelator impact: investigating the pharmacokinetic behavior of copper-64 labeled PD-L1 radioligands” (EJNMMI Radiopharmacy and Chemistry, 2024)
